According to patent US10597388B2, “Pyridazinone herbicides” (FMC CORPORATION, priority 2014, dated 2020):

Columns and labels:
Experiment in all cases: Test C greenhouse herbicide test, pre- and postemergence
Format in all cases: in vivo
[1] = tested on: galium (catchweed bedstraw, Galium aparine)
Procedure, shortened: (§1)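 Each species was treated both before emergence, in a loam–sand soil mix, and after emergence, as 1- to 4-leaf seedlings in peat-based potting medium. Plants stayed in the greenhouse 13 to 15 d, then were scored from 0 (no effect) to 100 (complete control) relative to controls.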

[2] = tested on: pigweed (Amaranthus retroflexus)
Procedure, shortened: as §1

[3] = tested on: ragweed (common ragweed, Ambrosia elatior)
Procedure, shortened: as §1

[4] = tested on: lambsquarters (Chenopodium album)
Procedure, shortened: as §1

[5] = tested on: corn (Zea mays)
Procedure, shortened: as §1

[6] = tested on: wheat (winter wheat, Triticum aestivum)
Procedure, shortened: as §1

[7] = tested on: ryegrass, Italian (Italian ryegrass, Lolium multiflorum)
Procedure, shortened: as §1

[8] = tested on: blackgrass (Alopecurus myosuroides)
Procedure, shortened: as §1

[9] = tested on: crabgrass, large (large crabgrass, Digitaria sanguinalis)
Procedure, shortened: as §1

[10] = tested on: velvetleaf (Abutilon theophrasti)
Procedure, shortened: as §1

[11] = tested on: morningglory (Ipomoea coccinea)
Procedure, shortened: as §1

[12] = tested on: oilseed rape (Brassica napus)
Procedure, shortened: as §1

[13] = tested on: waterhemp (common waterhemp, Amaranthus rudis)
Procedure, shortened: as §1

[14] = tested on: foxtail, giant (giant foxtail, Setaria faberii)
Procedure, shortened: as §1

[15] = tested on: barnyardgrass (Echinochloa crus-galli)
Procedure, shortened: as §1

[16] = Postemergence, 31 g ai/ha, 0 to 100 scale (0 no effect, 100 complete control)
[17] = Postemergence, 125 g ai/ha, scale 0 to 100, 0 is no effect, 100 is complete control
[18] = Postemergence, 250 g ai/ha, scale 0 to 100, 0 no effect, 100 complete control, 13 to 15 d
[19] = Preemergence, 31 g ai/ha, scale 0 to 100, 0 is no effect, 100 is complete control
[20] = Preemergence, 62 g ai/ha, scale 0 to 100, 0 is no effect, 100 is complete control
[21] = Preemergence, 125 g ai/ha, scale 0 to 100, 0 is no effect, 100 is complete control
[22] = Preemergence, 250 g ai/ha, scale 0 to 100, 0 no effect, 100 complete control
[23] = postemergence, 62 g ai/ha, scale 0 to 100, 0 no effect, 100 complete control

SMILES: Cc1ccc2sc(Br)c(-c3c(O)c(C)nn(C)c3=O)c2c1 [Compound 79]
- Galium plant response rating [1, 16]: 95
- Plant response rating, Galium [1, 17]: 95
- Plant response rating, Galium [1, 18]: 95
- Plant response rating, Galium [1, 19]: 95
- Plant response rating, Galium [1, 20]: 95
- Plant response rating, Galium [1, 21]: 95
- Galium plant response rating [1, 22]: 98
- Galium plant response rating [1, 23]: 95
- Pigweed plant response rating [2, 16]: 90
- Plant response rating, Pigweed [2, 17]: 98
- Plant response rating, Pigweed [2, 18]: 98
- Plant response rating, Pigweed [2, 19]: 100
- Plant response rating, Pigweed [2, 20]: 100
- Plant response rating, Pigweed [2, 21]: 100
- Pigweed plant response rating [2, 22]: 100
- Pigweed plant response rating [2, 23]: 98
- Ragweed plant response rating [3, 16]: 90
- Plant response rating, Ragweed [3, 17]: 98
- Plant response rating, Ragweed [3, 18]: 98
- Plant response rating, Ragweed [3, 19]: 90
- Plant response rating, Ragweed [3, 20]: 95
- Plant response rating, Ragweed [3, 21]: 98
- Ragweed plant response rating [3, 22]: 100
- Ragweed plant response rating [3, 23]: 95
- Lambsquarters plant response rating [4, 16]: 85
- Plant response rating, Lambsquarters [4, 17]: 98
- Plant response rating, Lambsquarters [4, 18]: 100
- Plant response rating, Lambsquarters [4, 19]: 100
- Plant response rating, Lambsquarters [4, 20]: 95
- Plant response rating, Lambsquarters [4, 21]: 100
- Lambsquarters plant response rating [4, 22]: 100
- Lambsquarters plant response rating [4, 23]: 95
- Corn plant response rating [5, 16]: 0
- Plant response rating, Corn [5, 17]: 25
- Plant response rating, Corn [5, 18]: 35
- Plant response rating, Corn [5, 19]: 0
- Plant response rating, Corn [5, 20]: 0
- Plant response rating, Corn [5, 21]: 5
- Corn plant response rating [5, 22]: 5
- Corn plant response rating [5, 23]: 0
- Wheat plant response rating [6, 16]: 0
- Plant response rating, Wheat [6, 17]: 0
- Plant response rating, Wheat [6, 18]: 0
- Plant response rating, Wheat [6, 19]: 0
- Plant response rating, Wheat [6, 20]: 0
- Plant response rating, Wheat [6, 21]: 0
- Wheat plant response rating [6, 22]: 0
- Wheat plant response rating [6, 23]: 0
- Ryegrass, Italian plant response rating [7, 16]: 50
- Plant response rating, Ryegrass, Italian [7, 17]: 85
- Plant response rating, Ryegrass, Italian [7, 18]: 85
- Plant response rating, Ryegrass, Italian [7, 19]: 20
- Plant response rating, Ryegrass, Italian [7, 20]: 90
- Plant response rating, Ryegrass, Italian [7, 21]: 90
- Ryegrass, Italian plant response rating [7, 22]: 90
- Ryegrass, Italian plant response rating [7, 23]: 60
- Blackgrass plant response rating [8, 16]: 5
- Plant response rating, Blackgrass [8, 17]: 35
- Plant response rating, Blackgrass [8, 18]: 50
- Plant response rating, Blackgrass [8, 19]: 20
- Plant response rating, Blackgrass [8, 20]: 50
- Plant response rating, Blackgrass [8, 21]: 60
- Blackgrass plant response rating [8, 22]: 85
- Blackgrass plant response rating [8, 23]: 10
- Crabgrass, Large plant response rating [9, 16]: 20
- Plant response rating, Crabgrass, Large [9, 17]: 30
- Plant response rating, Crabgrass, Large [9, 18]: 35
- Plant response rating, Crabgrass, Large [9, 19]: 25
- Plant response rating, Crabgrass, Large [9, 20]: 25
- Plant response rating, Crabgrass, Large [9, 21]: 20
- Crabgrass, Large plant response rating [9, 22]: 30
- Crabgrass, Large plant response rating [9, 23]: 25
- Velvetleaf plant response rating [10, 16]: 75
- Plant response rating, Velvetleaf [10, 17]: 90
- Plant response rating, Velvetleaf [10, 18]: 90
- Plant response rating, Velvetleaf [10, 19]: 80
- Plant response rating, Velvetleaf [10, 20]: 85
- Plant response rating, Velvetleaf [10, 21]: 95
- Velvetleaf plant response rating [10, 22]: 95
- Velvetleaf plant response rating [10, 23]: 85
- Morningglory plant response rating [11, 16]: 100
- Plant response rating, Morningglory [11, 17]: 100
- Plant response rating, Morningglory [11, 18]: 98
- Plant response rating, Morningglory [11, 19]: 90
- Plant response rating, Morningglory [11, 20]: 95
- Plant response rating, Morningglory [11, 21]: 98
- Morningglory plant response rating [11, 22]: 98
- Morningglory plant response rating [11, 23]: 100
- Oilseed Rape plant response rating [12, 16]: 20
- Plant response rating, Oilseed Rape [12, 17]: 70
- Plant response rating, Oilseed Rape [12, 18]: 80
- Plant response rating, Oilseed Rape [12, 19]: 0
- Plant response rating, Oilseed Rape [12, 20]: 35
- Plant response rating, Oilseed Rape [12, 21]: 30
- Oilseed Rape plant response rating [12, 22]: 30
- Oilseed Rape plant response rating [12, 23]: 25
- Waterhemp plant response rating [13, 16]: 85
- Plant response rating, Waterhemp [13, 17]: 80
- Plant response rating, Waterhemp [13, 18]: 95
- Plant response rating, Waterhemp [13, 19]: 100
- Plant response rating, Waterhemp [13, 20]: 100
- Plant response rating, Waterhemp [13, 21]: 100
- Waterhemp plant response rating [13, 22]: 100
- Waterhemp plant response rating [13, 23]: 90
- Foxtail, Giant plant response rating [14, 16]: 35
- Plant response rating, Foxtail, Giant [14, 17]: 75
- Plant response rating, Foxtail, Giant [14, 18]: 90
- Plant response rating, Foxtail, Giant [14, 19]: 65
- Plant response rating, Foxtail, Giant [14, 20]: 85
- Plant response rating, Foxtail, Giant [14, 21]: 85
- Foxtail, Giant plant response rating [14, 22]: 95
- Foxtail, Giant plant response rating [14, 23]: 60
- Barnyardgrass plant response rating [15, 16]: 20
- Plant response rating, Barnyardgrass [15, 17]: 30
- Plant response rating, Barnyardgrass [15, 18]: 40
- Plant response rating, Barnyardgrass [15, 19]: 10
- Plant response rating, Barnyardgrass [15, 20]: 15
- Plant response rating, Barnyardgrass [15, 21]: 65
- Barnyardgrass plant response rating [15, 22]: 85
- Barnyardgrass plant response rating [15, 23]: 25
